In paper PMC6717395 (Drug Design, Development and Therapy, 2019):

Columns and labels:
[1] = molecular target: butyrylcholinesterase (BChE) (Homo sapiens, UniProt P06276); experiment: Anticholinesterase assay; format: biochemical
[2] = DPPH antioxidant assay; conditions: for DPPH % inhibition (mean ± S.E.M): n=3; for DPPH IC50: DPPH radical scavenging
[3] = ABTS antioxidant assay; conditions: for ABTS percent inhibition (mean ± S.E.M): n=3; for ABTS IC50: ABTS radical scavenging
[4] = molecular target: acetylcholinesterase (AChE) (Homo sapiens, UniProt P22303); experiment: biochemical
[5] = read-out: Percent BChE (mean ± SEM) inhibition

Chain of butyrylcholinesterase (BChE) (P06276 29-602, species assumed): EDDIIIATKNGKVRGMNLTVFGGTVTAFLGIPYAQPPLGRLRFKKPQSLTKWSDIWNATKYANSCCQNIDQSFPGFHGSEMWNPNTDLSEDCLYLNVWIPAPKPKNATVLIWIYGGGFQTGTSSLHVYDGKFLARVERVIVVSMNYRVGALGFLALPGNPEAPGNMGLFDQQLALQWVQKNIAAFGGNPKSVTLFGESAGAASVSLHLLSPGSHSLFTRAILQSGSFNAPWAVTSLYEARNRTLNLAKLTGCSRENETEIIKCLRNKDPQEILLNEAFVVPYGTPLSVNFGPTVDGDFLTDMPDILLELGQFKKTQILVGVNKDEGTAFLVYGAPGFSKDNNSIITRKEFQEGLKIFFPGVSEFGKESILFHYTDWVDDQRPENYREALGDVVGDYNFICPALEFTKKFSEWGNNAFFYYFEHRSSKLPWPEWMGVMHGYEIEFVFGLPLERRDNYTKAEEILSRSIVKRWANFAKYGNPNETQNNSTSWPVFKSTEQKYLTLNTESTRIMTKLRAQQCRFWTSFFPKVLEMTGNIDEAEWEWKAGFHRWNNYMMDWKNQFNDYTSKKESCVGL
Chain of acetylcholinesterase (AChE) (P22303 32-614, species assumed): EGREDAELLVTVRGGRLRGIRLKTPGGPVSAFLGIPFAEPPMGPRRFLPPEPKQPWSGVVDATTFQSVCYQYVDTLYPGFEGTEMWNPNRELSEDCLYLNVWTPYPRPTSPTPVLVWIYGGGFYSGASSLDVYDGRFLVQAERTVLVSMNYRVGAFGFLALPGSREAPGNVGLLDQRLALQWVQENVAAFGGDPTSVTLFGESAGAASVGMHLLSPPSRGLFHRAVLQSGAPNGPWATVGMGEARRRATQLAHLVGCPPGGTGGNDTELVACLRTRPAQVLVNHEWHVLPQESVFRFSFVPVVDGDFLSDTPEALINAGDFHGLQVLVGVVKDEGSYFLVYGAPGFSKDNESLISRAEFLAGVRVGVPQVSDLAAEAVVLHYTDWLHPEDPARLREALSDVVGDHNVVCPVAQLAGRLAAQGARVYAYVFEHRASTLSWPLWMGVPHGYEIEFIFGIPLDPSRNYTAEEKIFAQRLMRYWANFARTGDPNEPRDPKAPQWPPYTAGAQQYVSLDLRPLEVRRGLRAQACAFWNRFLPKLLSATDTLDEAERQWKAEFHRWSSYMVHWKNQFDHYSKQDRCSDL

In the case of COc1ccc2c3c1O[C@H]1C[C@@H](O)C=C[C@@]31CCN(C)C2 [Galanthamine, reference compound], the inhibition at 62.5 µg/mL [1, 5] is reported as 53.5 ± 1.69%.

In the case of O=C1O[C@H]([C@@H](O)CO)C(O)=C1O [Ascorbic acid, reference compound], the “DPPH % inhibition (mean ± S.E.M)” value ([2]; 62.5 μg/mL) is reported as 55.05±1.54%, the “DPPH % inhibition (mean ± S.E.M)” value ([2]; 125 μg/mL) is reported as 65.30±2.05% and the “DPPH % inhibition (mean ± S.E.M)” value ([2]; 250 μg/mL) is reported as 78.89±1.34%. The “DPPH % inhibition (mean ± S.E.M)” value ([2]; 500 μg/mL) was 87.21±0.75%, the “DPPH % inhibition (mean ± S.E.M)” value ([2]; 1000 μg/mL) was 94.88±1.63% and the “DPPH IC50” value [2] was 35 µg/mL. The “ABTS percent inhibition (mean ± S.E.M)” value ([3]; 62.5 μg/mL) was 55.51±1.09%, the “ABTS percent inhibition (mean ± S.E.M)” value ([3]; 125 μg/mL) was 64.06±1.15% and the “ABTS percent inhibition (mean ± S.E.M)” value ([3]; 250 μg/mL) was 77.64±3.06%. For the same compound, the “ABTS percent inhibition (mean ± S.E.M)” value ([3]; 500 μg/mL) was 83.76±1.16%, the “ABTS percent inhibition (mean ± S.E.M)” value ([3]; 1000 μg/mL) was 93.41±0.73% and the “ABTS IC50” value [3] was 35 µg/mL.

With O=C(O)CCCCC(=O)O [Compound VIII, Hexanedioic acid] the “DPPH % inhibition (mean ± S.E.M)” value ([2]; 62.5 μg/mL) was 41.17±1.97 %, the “DPPH % inhibition (mean ± S.E.M)” value ([2]; 125 μg/mL) was 51.10±2.39 % and the “DPPH % inhibition (mean ± S.E.M)” value ([2]; 250 μg/mL) was 63.13±2.17 %. For the same compound, the “DPPH % inhibition (mean ± S.E.M)” value ([2]; 500 μg/mL) was 72.84±1.87 %, the “DPPH % inhibition (mean ± S.E.M)” value ([2]; 1000 μg/mL) was 81.64±2.76 % and the “DPPH IC50” value [2] was 118 µg/mL. The “ABTS percent inhibition (mean ± S.E.M)” value ([3]; 62.5 μg/mL) was 41.70±1.06 %, the “ABTS percent inhibition (mean ± S.E.M)” value ([3]; 125 μg/mL) was 50.02±1.11 % and the “ABTS percent inhibition (mean ± S.E.M)” value ([3]; 250 μg/mL) was 62.19±0.90 %. The “ABTS percent inhibition (mean ± S.E.M)” value ([3]; 500 μg/mL) was 70.10±1.20 %, the “ABTS percent inhibition (mean ± S.E.M)” value ([3]; 1000 μg/mL) was 80.23±1.37 % and the “ABTS IC50” value [3] was 125 µg/mL. The IC50 [1] was 848 µM, the inhibition at 62.5 µg/mL [1, 5] was 40.6 ± 1.06% and the inhibition at 125 µg/mL [1, 5] was 50.1 ± 2.16%. It also gave an inhibition at 250 µg/mL [1, 5] of 61.2 ± 2.1%, an inhibition at 500 µg/mL [1, 5] of 71.3 ± 1.1% and an inhibition at 1000 µg/mL [1, 5] of 78.2 ± 1.31%. The IC50 [4] was 835 µM, the inhibition at 62.5 µg/mL ([4]; read-out: Percent AChE (mean ± SEM) inhibition, 62.5 μg/mL, n=3) was 41.7 ± 3.01% and the inhibition at 125 µg/mL ([4]; read-out: Percent AChE (mean ± SEM) inhibition, 125 μg/mL, n=3) was 50.3 ± 2.1%. It also gave an inhibition at 250 µg/mL ([4]; read-out: Percent AChE (mean ± SEM) inhibition, 250 μg/mL, n=3) of 62.1 ± 2.41%, an inhibition at 500 µg/mL ([4]; read-out: Percent AChE (mean ± SEM) inhibition, 500 μg/mL, n=3) of 71.2 ± 2.37% and an inhibition at 1000 µg/mL ([4]; read-out: Percent AChE (mean ± SEM) inhibition, 1000 μg/mL, n=3) of 79.6 ± 2.1%.
